{"source": "patent US10442807B2", "about": "“Aryl substituted bicyclic compounds as herbicides” (FMC Corporation, priority 2015, dated 2019)", "type_in_all_cases": "in vivo", "key": {"[1]": {"tested_on": "ragweed (common ragweed, Ambrosia elation)", "test": "Test A postemergence application, visual injury rating", "conditions": "approx. 10 d, 0 = no effect, 100 = complete control", "how_it_was_run": "(§1)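 In a loam soil and sand blend, either planted seeds got a preemergence directed soil spray or plants at the one- to two-leaf stage (2 to 10 cm tall) were sprayed, using test chemicals in a non-phytotoxic solvent mixture with surfactant. After about 10 d in a greenhouse, injury was visually rated against untreated controls on a 0-100 scale.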"}, "[2]": {"tested_on": "wheat (Triticum aestivum)", "test": "Test A postemergence application, visual injury rating", "conditions": "approx. 10 d, 0 = no effect, 100 = complete control", "how_it_was_run": "as §1"}, "corn (Zea mays)": {"tested_on": "corn (Zea mays)", "test": "Test A postemergence application, visual injury rating", "conditions": "approx. 10 d, 0 = no effect, 100 = complete control", "how_it_was_run": "as §1"}, "[3]": {"tested_on": "ryegrass, Italian (Italian ryegrass, Lolium multiflorum)", "test": "Test A postemergence application, visual injury rating", "conditions": "approx. 10 d, 0 = no effect, 100 = complete control", "how_it_was_run": "as §1"}, "kochia (Kochia scoparia) [4]": {"tested_on": "kochia (Kochia scoparia)", "test": "Test A postemergence application, visual injury rating", "conditions": "approx. 10 d, 0 = no effect, 100 = complete control", "how_it_was_run": "as §1"}, "[5]": {"tested_on": "barnyardgrass (Echinochloa crus-galli)", "test": "Test A postemergence application, visual injury rating", "conditions": "approx. 10 d, 0 = no effect, 100 = complete control", "how_it_was_run": "as §1"}, "[6]": {"tested_on": "foxtail, giant (giant foxtail, Setaria faberii)", "test": "Test A postemergence application, visual injury rating", "conditions": "approx. 10 d, 0 = no effect, 100 = complete control", "how_it_was_run": "as §1"}, "[7]": {"tested_on": "pigweed (Amaranthus retroflexus)", "test": "Test A postemergence application, visual injury rating", "conditions": "approx. 10 d, 0 = no effect, 100 = complete control", "how_it_was_run": "as §1"}, "[8]": {"tested_on": "galium (catchweed bedstraw, Galium aparine)", "test": "Test A postemergence application, visual injury rating", "conditions": "approx. 10 d, 0 = no effect, 100 = complete control", "how_it_was_run": "as §1"}, "[9]": {"tested_on": "blackgrass (Alopecurus myosuroides)", "test": "Test A postemergence application, visual injury rating", "conditions": "approx. 10 d, 0 = no effect, 100 = complete control", "how_it_was_run": "as §1"}, "[10]": {"tested_on": "ragweed (common ragweed, Ambrosia elation)", "test": "Test A preemergence, directed soil spray, visual injury rating", "conditions": "approx. 10 d, 0 = no effect, 100 = complete control", "how_it_was_run": "as §1"}, "[11]": {"tested_on": "ryegrass, Italian (Italian ryegrass, Lolium multiflorum)", "test": "Test A preemergence, directed soil spray, visual injury rating", "conditions": "approx. 10 d, 0 = no effect, 100 = complete control", "how_it_was_run": "as §1"}, "kochia (Kochia scoparia) [12]": {"tested_on": "kochia (Kochia scoparia)", "test": "Test A preemergence, directed soil spray, visual injury rating", "conditions": "approx. 10 d, 0 = no effect, 100 = complete control", "how_it_was_run": "as §1"}, "[13]": {"tested_on": "barnyardgrass (Echinochloa crus-galli)", "test": "Test A preemergence, directed soil spray, visual injury rating", "conditions": "approx. 10 d, 0 = no effect, 100 = complete control", "how_it_was_run": "as §1"}, "[14]": {"tested_on": "foxtail, giant (giant foxtail, Setaria faberii)", "test": "Test A preemergence, directed soil spray, visual injury rating", "conditions": "approx. 10 d, 0 = no effect, 100 = complete control", "how_it_was_run": "as §1"}, "[15]": {"tested_on": "pigweed (Amaranthus retroflexus)", "test": "Test A preemergence, directed soil spray, visual injury rating", "conditions": "approx. 10 d, 0 = no effect, 100 = complete control", "how_it_was_run": "as §1"}, "[16]": {"tested_on": "ducksalad (Heteranthera limosa)", "test": "Test B flooded paddy test, visual plant response rating", "conditions": "250 g ai/ha; applied to paddy water at 2-leaf stage; rated after 13 to 15 days; scale 0 to 100, 0 is no effect, 100 is complete control", "how_it_was_run": "(§2)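 Ratings compare treated with control plants by eye, scored 0 (no effect) to 100 (complete control). Application is into paddy water 3 cm deep over soil, maintained at that level for 13–15 days under greenhouse conditions.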"}, "rice (Oryza sativa)": {"tested_on": "rice (Oryza sativa)", "test": "Test B flooded paddy test, visual plant response rating", "conditions": "250 g ai/ha; applied to paddy water at 2-leaf stage; rated after 13 to 15 days; scale 0 to 100, 0 is no effect, 100 is complete control", "how_it_was_run": "as §2"}, "[17]": {"tested_on": "barnyardgrass (Echinochloa crus-galli)", "test": "Test B flooded paddy test, visual plant response rating", "conditions": "250 g ai/ha; applied to paddy water at 2-leaf stage; rated after 13 to 15 days; scale 0 to 100, 0 is no effect, 100 is complete control", "how_it_was_run": "as §2"}, "[18]": {"tested_on": "sedge, umbrella (small-flower umbrella sedge, Cyperus difformis)", "test": "Test B flooded paddy test, visual plant response rating", "conditions": "250 g ai/ha; applied to paddy water at 2-leaf stage; rated after 13 to 15 days; scale 0 to 100, 0 is no effect, 100 is complete control", "how_it_was_run": "as §2"}}}
{"smiles": "Cc1nnc2n1CC(c1ccc(Cl)cc1)C2C(=O)Nc1ccccc1F", "note": "(stereo not drawn) [Compound 21]", "values": [{"measurement": "Ragweed plant response rating (0 to 100 scale)", "setting": "[1]; 125 g ai/ha", "value": 0}, {"measurement": "Ragweed plant response rating (0 to 100 scale)", "setting": "[1]; 500 g ai/ha", "value": 0}, {"measurement": "Wheat plant response rating (0 to 100 scale)", "setting": "[2]; 125 g ai/ha", "value": 0}, {"measurement": "Wheat plant response rating (0 to 100 scale)", "setting": "[2]; 500 g ai/ha", "value": 0}, {"measurement": "Corn plant response rating (0 to 100 scale)", "setting": "corn (Zea mays); 125 g ai/ha", "value": 0}, {"measurement": "Corn plant response rating (0 to 100 scale)", "setting": "corn (Zea mays); 500 g ai/ha", "value": 0}, {"measurement": "Ryegrass, Italian plant response rating (0 to 100 scale)", "setting": "[3]; 125 g ai/ha", "value": 0}, {"measurement": "Ryegrass, Italian plant response rating (0 to 100 scale)", "setting": "[3]; 500 g ai/ha", "value": 20}, {"measurement": "Kochia plant response rating (0 to 100 scale)", "setting": "kochia (Kochia scoparia) [4]; 125 g ai/ha", "value": 0}, {"measurement": "Kochia plant response rating (0 to 100 scale)", "setting": "kochia (Kochia scoparia) [4]; 500 g ai/ha", "value": 0}, {"measurement": "Barnyardgrass plant response rating (0 to 100 scale)", "setting": "[5]; 125 g ai/ha", "value": 0}, {"measurement": "Barnyardgrass plant response rating (0 to 100 scale)", "setting": "[5]; 500 g ai/ha", "value": 40}, {"measurement": "Foxtail, Giant plant response rating (0 to 100 scale)", "setting": "[6]; 125 g ai/ha", "value": 0}, {"measurement": "Foxtail, Giant plant response rating (0 to 100 scale)", "setting": "[6]; 500 g ai/ha", "value": 70}, {"measurement": "Pigweed plant response rating (0 to 100 scale)", "setting": "[7]; 125 g ai/ha", "value": 0}, {"measurement": "Pigweed plant response rating (0 to 100 scale)", "setting": "[7]; 500 g ai/ha", "value": 0}, {"measurement": "Galium plant response rating (0 to 100 scale)", "setting": "[8]; 125 g ai/ha", "value": 0}, {"measurement": "Galium plant response rating (0 to 100 scale)", "setting": "[8]; 500 g ai/ha", "value": 50}, {"measurement": "Blackgrass plant response rating (0 to 100 scale)", "setting": "[9]; 125 g ai/ha", "value": 0}, {"measurement": "Blackgrass plant response rating (0 to 100 scale)", "setting": "[9]; 500 g ai/ha", "value": 20}, {"measurement": "Ragweed plant response rating (0 to 100 scale)", "setting": "[10]; 125 g ai/ha", "value": 0}, {"measurement": "Ragweed plant response rating (0 to 100 scale)", "setting": "[10]; 500 g ai/ha", "value": 0}, {"measurement": "Ryegrass, Italian plant response rating (0 to 100 scale)", "setting": "[11]; 125 g ai/ha", "value": 40}, {"measurement": "Ryegrass, Italian plant response rating (0 to 100 scale)", "setting": "[11]; 500 g ai/ha", "value": 40}, {"measurement": "Kochia plant response rating (0 to 100 scale)", "setting": "kochia (Kochia scoparia) [12]; 125 g ai/ha", "value": 0}, {"measurement": "Kochia plant response rating (0 to 100 scale)", "setting": "kochia (Kochia scoparia) [12]; 500 g ai/ha", "value": 40}, {"measurement": "Barnyardgrass plant response rating (0 to 100 scale)", "setting": "[13]; 125 g ai/ha", "value": 0}, {"measurement": "Barnyardgrass plant response rating (0 to 100 scale)", "setting": "[13]; 500 g ai/ha", "value": 40}, {"measurement": "Foxtail, Giant plant response rating (0 to 100 scale)", "setting": "[14]; 125 g ai/ha", "value": 0}, {"measurement": "Foxtail, Giant plant response rating (0 to 100 scale)", "setting": "[14]; 500 g ai/ha", "value": 70}, {"measurement": "Pigweed plant response rating (0 to 100 scale)", "setting": "[15]; 125 g ai/ha", "value": 0}, {"measurement": "Pigweed plant response rating (0 to 100 scale)", "setting": "[15]; 500 g ai/ha", "value": 0}, {"measurement": "Plant response rating, Flood, Ducksalad", "setting": "[16]", "value": 40}, {"measurement": "Plant response rating, Flood, Rice", "setting": "rice (Oryza sativa)", "value": 0}, {"measurement": "Plant response rating, Flood, Barnyardgrass", "setting": "[17]", "value": 0}, {"measurement": "Plant response rating, Flood, Sedge, Umbrella", "setting": "[18]", "value": 0}]}
